Laboratory results taken from the NIST ThermoML archive (doi:10.1016/j.jct.2007.05.017).

Experiment: xn = mol fraction of the nth substance listed
Conditions: Liquid, Vibrating tube method

COC(=O)OC [dimethyl carbonate] + O=C=O
mass density [kg/m3]
Conditions | x2 = 0.2765 | x2 = 0.4101 | x2 = 0.4429 | x2 = 0.5128 | x2 = 0.5573 | x2 = 0.6179 | x2 = 0.6791 | x2 = 0.6922 | x2 = 0.7885 | x2 = 0.7974
273 K | – | 475.4 | – | 448.2 | – | 373.6 | – | 331.4 | 260.1 | –
283 K | 659.5 | – | 569.3 | – | 465.6 | – | 358.1 | – | – | 311.1
